Test results reported in patent publication US9686986B2, “Herbicidal compounds” (SYNGENTA LIMITED, priority 2011, dated 2017).

Tests used:
Test in all cases: Glasshouse herbicide test, pre- and post-emergence, percentage damage
Type in all cases: in vivo
[1] = tested on: Solanum nigrum (SOLNI); conditions: 1000 g/h, evaluated after 13 days, five point scale; for percentage damage caused to the plant, SOLNI, POST Application: post-emergence; for percentage damage caused to the plant, SOLNI, PRE Application: pre-emergence
Procedure: (§1) Seeds of a variety of test species are sown in standard soil in pots (Alopecurus myosuroides (ALOMY), Setaria faberi (SETFA), Stellaria media (STEME), Echinochloa crus-galli (ECHCG), Solanum nigrum (SOLNI), Amaranthus retoflexus (AMARE), Ipomoea hederacea (IPOHE), Lolium perenne (LOLPE). After cultivation for one day (pre-emergence) or after 8 days cultivation (post-emergence) under controlled conditions in a glasshouse (at 24/16° C., day/night; 14 hours light; 65% humidity), the plants are sprayed with an aqueous spray solution derived from the formulation of the technical active ingredient in acetone/water (50:50) solution containing 0.5% Tween 20 (polyoxyethelyene sorbitan monolaurate, CAS RN 9005-64-5). Compounds ae applied at 1000 g/h. The test plants are then grown in a glasshouse under controlled conditions in a glasshouse (at 24/16° C., day/night; 14 hours light; 65% humidity) and watered twice daily. After 13 days for pre and post-emergence, the test is evaluated for the percentage damage caused to the plant. The biological activities are shown in the following table on a five point scale (5=80-100%; 4=60-79%; 3=40-59%; 2=20-39%; 1=0-19%).

[2] = tested on: Alopecurus myosuroides (ALOMY); conditions: 1000 g/h, evaluated after 13 days, five point scale; for percentage damage caused to the plant, ALOMY, POST Application: post-emergence; for percentage damage caused to the plant, ALOMY, PRE Application: pre-emergence
Procedure: as §1

[3] = tested on: Setaria faberi (SETFA); conditions: 1000 g/h, evaluated after 13 days, five point scale; for percentage damage caused to the plant, SETFA, POST Application: post-emergence; for percentage damage caused to the plant, SETFA, PRE Application: pre-emergence
Procedure: as §1

[4] = tested on: Ipomoea hederacea (IPOHE); conditions: 1000 g/h, evaluated after 13 days, five point scale; for percentage damage caused to the plant, IPOHE, POST Application: post-emergence; for percentage damage caused to the plant, IPOHE, PRE Application: pre-emergence
Procedure: as §1

[5] = tested on: Amaranthus retoflexus (AMARE); conditions: 1000 g/h, evaluated after 13 days, five point scale (Table B1); for percentage damage caused to the plant, AMARE, POST Application: post-emergence; for percentage damage caused to the plant, AMARE, PRE Application: pre-emergence
Procedure: as §1

[6] = tested on: Echinochloa crus-galli (ECHCG); conditions: 1000 g/h, evaluated after 13 days, five point scale; for percentage damage caused to the plant, ECHCG, POST Application: post-emergence; for percentage damage caused to the plant, ECHCG, PRE Application: pre-emergence
Procedure: as §1

| SMILES | percentage damage caused to the plant, SOLNI, POST Application [1] | percentage damage caused to the plant, SOLNI, PRE Application [1] | percentage damage caused to the plant, ALOMY, POST Application [2] | percentage damage caused to the plant, ALOMY, PRE Application [2] | percentage damage caused to the plant, SETFA, POST Application [3] | percentage damage caused to the plant, SETFA, PRE Application [3] | percentage damage caused to the plant, IPOHE, POST Application [4] | percentage damage caused to the plant, IPOHE, PRE Application [4] | percentage damage caused to the plant, AMARE, POST Application [5] | percentage damage caused to the plant, AMARE, PRE Application [5] | percentage damage caused to the plant, ECHCG, POST Application [6] | percentage damage caused to the plant, ECHCG, PRE Application [6] |
| --- | --- | --- | --- | --- | --- | --- | --- | --- | --- | --- | --- | --- |
| Cn1nnnc1NC(=O)c1cc(F)c(F)cc1[N+](=O)[O-] [Compound 1.011] | 2 (2=20-39%) | 1 (1=0-19%) | 1 (1=0-19%) | 1 (1=0-19%) | 1 (1=0-19%) | 1 (1=0-19%) | 2 (2=20-39%) | 1 (1=0-19%) | 3 (3=40-59%) | 5 (5=80-100%) | 2 (2=20-39%) | 1 (1=0-19%) |
| Cc1ccc([N+](=O)[O-])c(C(=O)Nc2nnnn2C)c1 [Compound 1.013] | 5 (5=80-100%) | 5 (5=80-100%) | 2 (2=20-39%) | 2 (2=20-39%) | 1 (1=0-19%) | 2 (2=20-39%) | 5 (5=80-100%) | 4 (4=60-79%) | 4 (4=60-79%) | 5 (5=80-100%) | 1 (1=0-19%) | 1 (1=0-19%) |
| Cn1nnnc1NC(=O)c1ccc(S(C)(=O)=O)c(COCC(F)(F)F)c1Cl [Compound 1.001] | 5 (5=80-100%) | 5 (5=80-100%) | 5 (5=80-100%) | 5 (5=80-100%) | 5 (5=80-100%) | 5 (5=80-100%) | 5 (5=80-100%) | 5 (5=80-100%) | 5 (5=80-100%) | 5 (5=80-100%) | 5 (5=80-100%) | 5 (5=80-100%) |
| Cn1nnnc1NC(=O)c1cc(F)ccc1C(F)(F)F [Compound 1.010] | 5 (5=80-100%) | 5 (5=80-100%) | 5 (5=80-100%) | 5 (5=80-100%) | 2 (2=20-39%) | 2 (2=20-39%) | 5 (5=80-100%) | 5 (5=80-100%) | 5 (5=80-100%) | 5 (5=80-100%) | 4 (4=60-79%) | 4 (4=60-79%) |
| CCCn1nnnc1NC(=O)c1cc(Cl)ccc1Cl [Compound 1.004] | 5 (5=80-100%) | 4 (4=60-79%) | 1 (1=0-19%) | 1 (1=0-19%) | 1 (1=0-19%) | 1 (1=0-19%) | 5 (5=80-100%) | 1 (1=0-19%) | 4 (4=60-79%) | 5 (5=80-100%) | 1 (1=0-19%) | 1 (1=0-19%) |
| CCc1nc(C(C)F)ccc1C(=O)Nc1nnnn1C (stereo not drawn) [Compound 1.005] | 5 (5=80-100%) | 5 (5=80-100%) | 2 (2=20-39%) | 3 (3=40-59%) | 2 (2=20-39%) | 3 (3=40-59%) | 5 (5=80-100%) | 5 (5=80-100%) | 5 (5=80-100%) | 5 (5=80-100%) | 5 (5=80-100%) | 5 (5=80-100%) |
| Cn1nnnc1NC(=O)c1cc(Cl)ccc1C(F)(F)F [Compound 1.009] | 5 (5=80-100%) | 5 (5=80-100%) | 5 (5=80-100%) | 5 (5=80-100%) | 1 (1=0-19%) | 1 (1=0-19%) | 5 (5=80-100%) | 4 (4=60-79%) | 5 (5=80-100%) | 5 (5=80-100%) | 2 (2=20-39%) | 2 (2=20-39%) |
